The source of these data is US10412961B2, “Substituted 2,3-dihydrobenzofuran compounds and their use as synergists” (Endura SPA, priority 2015, dated 2019).

In one series the test system is Bemisia tabaci CYPCM1. The following applies: recombinant enzyme 50 μL + 3 μL of 10 mM compound stock in acetone, 10 min incubation at room temperature, substrate 7-ethoxycoumarin, NADPH.
The target in series [1] is T1, FE4 Myzus persicae esterases (Myzus persicae, UniProt P35502).
T1 construct: would be utilised for the purified esterases from aphids; from tissue; host or cells: aphids (Myzus persicae), purified esterase
T1 sequence (P35502 24-564): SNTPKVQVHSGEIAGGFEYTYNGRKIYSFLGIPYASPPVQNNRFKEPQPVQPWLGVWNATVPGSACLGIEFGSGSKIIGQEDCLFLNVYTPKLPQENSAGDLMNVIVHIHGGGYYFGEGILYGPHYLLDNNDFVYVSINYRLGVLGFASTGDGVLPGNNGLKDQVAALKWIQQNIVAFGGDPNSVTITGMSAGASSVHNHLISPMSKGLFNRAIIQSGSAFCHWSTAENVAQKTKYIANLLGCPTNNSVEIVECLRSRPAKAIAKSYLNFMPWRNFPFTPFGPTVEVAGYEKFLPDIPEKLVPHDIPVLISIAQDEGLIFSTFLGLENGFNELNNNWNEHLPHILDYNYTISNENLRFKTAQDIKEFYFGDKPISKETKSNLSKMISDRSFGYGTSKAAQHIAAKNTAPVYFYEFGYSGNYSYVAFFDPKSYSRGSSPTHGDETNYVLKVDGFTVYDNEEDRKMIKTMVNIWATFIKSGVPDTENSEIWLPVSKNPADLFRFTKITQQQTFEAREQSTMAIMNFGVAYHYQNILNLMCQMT
Briefly: Inhibition of esterase FE4, 4-nitrophenyl acetate model substrate assay. The series is classed as biochemical. The following applies: purified FE4, 2.5 μL of 10 mM compound in acetone, 10 min incubation, substrate 4-nitrophenyl acetate 0.8 mM, read at 405 nm. The protocol:
Inhibition of Esterasenzymes by Synergists in Myzus persicae
It was envisaged, therefore, that the ‘esterase intereference assay’ (Khot et al., 2008) would be utilised for the purified esterases from aphids. Various esterase substrates were assessed to find one suitable of monitoring inhibition in an insect homogenate. The Myzus persicae resistance associated esterase, FE4, was used.
Initially the esterase interference assay was carried out, as being the ‘absolute’ protocol for characterizing interactions between the compounds of Example 1-9 and FE4. However, since this is a protracted method, a selection of products already reported in the literature were used to compare the interference assay and the use of a model substrate.
From the literature (Philippou et al., 2013) it is known that 1-naphthyl acetate is not suitable for this assay. Instead, 4-nitrophenyl acetate was used. A 10 mM pNA stock was prepared in acetone and added to 0.02 M phosphate buffer pH 7.0 (final concentration 2 mM). The comparison was made with 6 PBO analogues of variable efficacy.
For the assay 10 μL of purified FE4 was diluted to a total volume of 50 μL by the addition of 0.02 M phosphate buffer, pH 7.0 in individual wells of a microplate (maxisorb, NUNC). To each well, 2.5 μL of 10 mM of the compound of Example 1 and of Example 2 in acetone was added and incubated for 10 mins, with acetone only used as a control. Following incubation, 100 μL of 0.02 phosphate buffer, pH 7.0 and 100 μL of 2 mM 4-nitrophenyl acetate was added (final volume in well 250 μL, final substrate concentration 0.8 mM). Enzyme activity was read at 405 nm in a Spectramax Tmax for 5 min, with readings taken every 5 secs. The rate (mOD min^−1) was calculated by the integrated software, Softmax Pro v.5.4.

Series [2] has as its target T2, E4, a resistance-associated esterase (Myzus persicae, UniProt P35501).
T2 sequence (P35501 24-552): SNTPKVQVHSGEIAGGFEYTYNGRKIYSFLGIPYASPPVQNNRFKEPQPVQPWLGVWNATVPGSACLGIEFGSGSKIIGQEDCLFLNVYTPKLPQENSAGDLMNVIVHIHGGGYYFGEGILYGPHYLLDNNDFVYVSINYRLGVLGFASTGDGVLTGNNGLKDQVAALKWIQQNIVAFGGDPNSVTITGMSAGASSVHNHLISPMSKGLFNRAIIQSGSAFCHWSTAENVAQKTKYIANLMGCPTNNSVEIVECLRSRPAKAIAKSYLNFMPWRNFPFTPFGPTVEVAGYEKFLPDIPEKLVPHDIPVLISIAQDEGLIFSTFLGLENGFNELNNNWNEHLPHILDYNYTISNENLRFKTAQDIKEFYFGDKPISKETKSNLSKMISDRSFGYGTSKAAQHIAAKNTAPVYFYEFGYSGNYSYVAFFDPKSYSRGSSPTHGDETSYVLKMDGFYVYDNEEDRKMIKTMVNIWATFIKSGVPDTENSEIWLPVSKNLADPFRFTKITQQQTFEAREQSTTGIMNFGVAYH
The following applies: compared with PBO; cited from earlier work.

Protocol for Bemisia tabaci CYPCM1: Ability of the compounds of the invention to inhibit oxidative enzymes (P450), a major mechanism conferring resistance to xenobiotics, was measured using recombinant enzymes corresponding to CYPCM1 from Bemisia tabaci.
Substrate used was 7-ethoxycoumarin for inhibition assays as described by Ulrich and Weber (1972) and adapted to microplate format as described by De Sousa et al. (1995).
Diluted recombinant enzyme (50 μL) was mixed with 3 μL of the above mentioned compound stock solutions, with acetone only used as a control. After 10 min incubation at room temperature, 80 μL of 0.125 mM 7- ethoxycoumarin was added, followed by 10 μL 9.6 mM NADPH (nicotinamide adenine dinucleotide phosphate) in 0.1 M sodium phosphate, pH 7.8, and O-deethylation activity monitored as above. A PBO solution (10 mM) was prepared in the same way as a comparison.

As usually defined, the remaining activity is the signal under treatment as a percentage of the control signal. Consider `CC#CCOCc1cc(CCCC)cc2c1OCC2` [Example 3, 5-n-butyl-7-((but-2-ynyloxy)methyl)-2,3-dihydrobenzofuran], for which, in the series on Bemisia tabaci CYPCM1, the “% activity remaining” value is 3.16%. In addition, the remaining activity at 10000 µM (stock) in series [1] turned out to be 19.9%.

On to `CC#CCOc1ccc2c(c1)OCC2` [EN16-18, 6-(but-2-ynyloxy)-2,3-dihydrobenzofuran], for which, in series [2], the binding affinity result was “comparable with PBO”.

For `C#CCOCc1cc(CCC)cc2c1OCC2` [Example 8, 5-n-propyl-7-((prop-2-ynyloxy)methyl)-2,3-dihydrobenzofuran], in the series with Bemisia tabaci CYPCM1, the “% activity remaining” value is 86.22%. Besides, the remaining activity at 10000 µM (stock) in series [1] was 23.9%.

Turning to `CC#CCOc1cc(CCCCCC)cc2c1OCC2` [Example 4, 5-n-hexyl-7-(but-2-ynyloxy)-2,3-dihydrobenzofuran], the “% activity remaining” value with Bemisia tabaci CYPCM1 was determined as 39.22%. In series [1], the remaining activity at 10000 µM (stock) is 24%.

With `C#CCOCc1cc(CCCCCC)cc2c1OCC2` [Example 1, 5-n-hexyl-7-((prop-2-ynyloxy)methyl)-2,3-dihydrobenzofuran], in series [1], the remaining activity at 10000 µM (stock) worked out at 26.2%.

Take `CC#CCOCc1cc(CCCCCC)cc2c1OCC2` [Example 2, 5-n-hexyl-7-((but-2-ynyloxy)methyl)-2,3-dihydrobenzofuran]: the “% activity remaining” value in the series on Bemisia tabaci CYPCM1 turned out to be 27.49%. Further, the remaining activity at 10000 µM (stock) in series [1] was 35.4%.

For `C#CCOCc1cc(CCCC)cc2c1OCC2` [Example 5, 5-n-butyl-7-((prop-2-ynyloxy)methyl)-2,3-dihydrobenzofuran], in the series on Bemisia tabaci CYPCM1, the “% activity remaining” value is listed as 87.62%. The remaining activity at 10000 µM (stock) in series [1] turned out to be 18.4%.

Take `CC#CCOCc1cc(CCC)cc2c1OCC2` [Example 7, 5-n-propyl-7-((but-2-ynyloxy)methyl)-2,3-dihydrobenzofuran]: the “% activity remaining” value in the series with Bemisia tabaci CYPCM1 was determined as 17.92%. Also, the remaining activity at 10000 µM (stock) in series [1] was 19.9%.

Take `C#CCOc1cc(CCCCCC)cc2c1OCC2` [Example 6, 5-n-hexyl-7-(prop-2-ynyloxy)-2,3-dihydrobenzofuran]: the “% activity remaining” value with Bemisia tabaci CYPCM1 is on record as 61.16%. Besides, the remaining activity at 10000 µM (stock) in series [1] is 29.8%.
